The record followed here is US11414384B2, “P300/CBP hat inhibitors” (Constellation Pharmaceuticals, Inc., priority 2018, dated 2022).

A word on the IC50: it is the midpoint of a concentration-inhibition curve. As a reminder, the EC50 is the midpoint of the concentration-response curve.

The target of assay [1] is p300 HAT domain (residues 1287-1666) (Homo sapiens (Human), UniProt Q09472). Nature of the assay: p300 HAT SPA assay (scintillation proximity assay, acetylation of biotinylated H3(1-21) peptide). To be noted: p300 HAT domain; average of at least 2 replicate titrations; read-out: P300 HAT SPA IC50. It counts as biochemical. The method, boiled down: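 Purified p300 HAT domain reaction transferred to streptavidin plates to capture biotinylated H3(1-21) peptide, incubated 1.5 hr at RT, and read by scintillation proximity. IC50 values derived from concentration-response data.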
On the technique in general: SPA uses beads or plates that emit light when radiolabelled molecules are held near them.

In assay [2] the test system is acetylation of chromatin at H3K18 (catalyzed by p300 and CBP) in HCT-116 cells. Nature of the assay: H3K18Ac MSD cellular assay. It counts as cell-based. To be noted: Homo sapiens, HCT-116, 2 h, 2 hr treatment, average of at least 2 replicate titrations. The method, boiled down: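 HCT-116 cells plated overnight in RPMI + 10% FBS, treated with compound for 2 h at 37 °C, then lysed. H3K18ac measured by MSD sandwich immunoassay: total-histone capture antibody, anti-H3K18ac detection, Sulfo-Tag anti-rabbit electrochemiluminescence read.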

The target of the next assay is full length p300 (Homo sapiens (Human), UniProt Q09472). Nature of the assay: full length p300 SPA assay. It counts as biochemical. To be noted: average of at least 2 replicate titrations, read-out: FL P300 IC50. As to the method: Reactions were initiated with 12.5 μL 2 μM biotinylated H3(1-21) peptide (New England Peptide) and run for 1 hr at RT, then quenched with 20 μL stop solution (200 mM Tris pH 8.0, 200 mM EDTA, 2M NaCl, 160 μM anacardic acid). 35 μL of the reaction volume was transferred to a 384-well streptavidin FlashPlate (PerkinElmer) using a Bravo liquid handler (Velocity 11) and incubated for 1.5 hr at RT. Plates were aspirated, washed with 95 μL wash buffer (15 mM Tris pH 8.5, 0.069 μM Brij-35), aspirated, sealed, and scintillation counts read on a Topcount (PerkinElmer). Data were analyzed in Genedata to determine inhibitor IC50 values.
The full length p300 SPA assay was run following the same protocol as p300 HAT SPA assay, but used 6 nM purified full length p300 (purchased from Active Motif) in place of the purified p300-HAT domain.

p300 HAT domain (residues 1287-1666), sequence (Q09472 1287-1666): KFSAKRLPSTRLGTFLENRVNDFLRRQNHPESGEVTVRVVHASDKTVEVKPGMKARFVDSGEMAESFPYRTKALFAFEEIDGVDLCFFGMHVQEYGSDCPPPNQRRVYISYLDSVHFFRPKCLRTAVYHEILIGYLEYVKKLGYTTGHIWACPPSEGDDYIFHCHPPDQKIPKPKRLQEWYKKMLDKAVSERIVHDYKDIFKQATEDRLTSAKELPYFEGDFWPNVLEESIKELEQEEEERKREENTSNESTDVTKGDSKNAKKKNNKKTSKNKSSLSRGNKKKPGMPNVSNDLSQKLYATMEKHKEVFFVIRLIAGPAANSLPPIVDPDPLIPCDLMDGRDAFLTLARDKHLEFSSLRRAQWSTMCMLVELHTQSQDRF
full length p300, sequence (Q09472 whole entry): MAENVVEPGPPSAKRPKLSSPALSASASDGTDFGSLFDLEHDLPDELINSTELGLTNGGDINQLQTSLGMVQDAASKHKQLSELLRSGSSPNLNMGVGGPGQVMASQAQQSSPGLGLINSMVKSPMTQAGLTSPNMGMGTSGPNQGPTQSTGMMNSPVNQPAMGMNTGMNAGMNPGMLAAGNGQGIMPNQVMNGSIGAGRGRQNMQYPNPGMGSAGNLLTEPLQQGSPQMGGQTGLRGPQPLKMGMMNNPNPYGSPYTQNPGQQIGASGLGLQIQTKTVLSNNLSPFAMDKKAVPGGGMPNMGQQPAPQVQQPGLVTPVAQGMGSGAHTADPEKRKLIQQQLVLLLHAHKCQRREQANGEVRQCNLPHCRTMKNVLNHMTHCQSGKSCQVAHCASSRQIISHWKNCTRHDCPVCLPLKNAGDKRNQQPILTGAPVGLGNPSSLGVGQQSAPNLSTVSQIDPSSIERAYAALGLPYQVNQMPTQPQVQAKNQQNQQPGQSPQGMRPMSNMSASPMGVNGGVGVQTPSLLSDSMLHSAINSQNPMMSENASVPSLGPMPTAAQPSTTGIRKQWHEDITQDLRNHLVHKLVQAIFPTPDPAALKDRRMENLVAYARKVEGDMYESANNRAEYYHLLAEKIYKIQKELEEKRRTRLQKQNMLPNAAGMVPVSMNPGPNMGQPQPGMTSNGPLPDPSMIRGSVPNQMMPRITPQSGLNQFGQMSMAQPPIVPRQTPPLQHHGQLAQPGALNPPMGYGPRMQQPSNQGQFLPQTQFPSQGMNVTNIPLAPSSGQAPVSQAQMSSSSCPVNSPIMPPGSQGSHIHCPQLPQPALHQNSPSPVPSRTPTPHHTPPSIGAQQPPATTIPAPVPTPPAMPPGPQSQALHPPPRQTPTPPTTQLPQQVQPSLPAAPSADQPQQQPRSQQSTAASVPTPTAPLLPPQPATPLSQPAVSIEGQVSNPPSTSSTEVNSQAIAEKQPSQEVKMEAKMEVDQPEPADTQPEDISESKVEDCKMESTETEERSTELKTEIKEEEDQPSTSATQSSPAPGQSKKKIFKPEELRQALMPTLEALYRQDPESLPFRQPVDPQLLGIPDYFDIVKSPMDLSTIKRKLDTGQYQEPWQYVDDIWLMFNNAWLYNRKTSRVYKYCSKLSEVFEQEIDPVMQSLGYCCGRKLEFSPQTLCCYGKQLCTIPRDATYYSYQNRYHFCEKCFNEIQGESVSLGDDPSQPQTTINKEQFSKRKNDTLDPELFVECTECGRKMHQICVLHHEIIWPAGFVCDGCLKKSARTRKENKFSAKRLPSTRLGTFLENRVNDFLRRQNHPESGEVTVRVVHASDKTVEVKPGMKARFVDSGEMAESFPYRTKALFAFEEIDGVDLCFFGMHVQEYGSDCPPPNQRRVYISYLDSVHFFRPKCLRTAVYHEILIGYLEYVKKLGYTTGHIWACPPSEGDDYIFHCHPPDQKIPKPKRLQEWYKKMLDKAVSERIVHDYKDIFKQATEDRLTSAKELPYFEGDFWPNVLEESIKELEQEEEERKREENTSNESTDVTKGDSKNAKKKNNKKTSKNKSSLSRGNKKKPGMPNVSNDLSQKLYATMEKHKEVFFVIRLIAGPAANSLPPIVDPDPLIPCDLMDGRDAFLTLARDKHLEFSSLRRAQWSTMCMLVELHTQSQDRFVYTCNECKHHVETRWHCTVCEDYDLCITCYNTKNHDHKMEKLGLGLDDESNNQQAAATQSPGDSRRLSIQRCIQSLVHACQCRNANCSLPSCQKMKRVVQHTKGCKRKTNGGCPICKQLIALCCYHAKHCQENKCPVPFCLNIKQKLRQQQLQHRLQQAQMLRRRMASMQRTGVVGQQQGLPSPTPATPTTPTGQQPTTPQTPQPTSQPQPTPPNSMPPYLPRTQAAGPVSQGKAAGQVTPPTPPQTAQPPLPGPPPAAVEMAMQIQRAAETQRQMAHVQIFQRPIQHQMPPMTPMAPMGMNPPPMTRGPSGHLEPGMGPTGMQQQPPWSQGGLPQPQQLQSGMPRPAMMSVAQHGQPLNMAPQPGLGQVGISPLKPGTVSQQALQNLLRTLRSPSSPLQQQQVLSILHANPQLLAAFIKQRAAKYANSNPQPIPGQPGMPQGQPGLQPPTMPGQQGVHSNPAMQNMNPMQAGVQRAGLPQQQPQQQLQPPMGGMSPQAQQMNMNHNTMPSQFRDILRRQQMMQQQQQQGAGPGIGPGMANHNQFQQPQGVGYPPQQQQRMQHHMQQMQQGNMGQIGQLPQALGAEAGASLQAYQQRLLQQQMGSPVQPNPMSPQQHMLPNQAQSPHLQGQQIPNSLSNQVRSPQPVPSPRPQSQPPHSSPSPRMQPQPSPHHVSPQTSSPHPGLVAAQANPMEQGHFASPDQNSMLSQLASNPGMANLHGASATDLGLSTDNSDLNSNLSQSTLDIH

As to `O=C(c1c[nH]c2cc(-n3ccnc3)ccc12)C(NCCc1ccc(F)cc1)c1ccccc1` (single isomer, unassigned) [117 Isomer 1], the IC50 stood at 0.839 µM in assay [1] and 0.0142 µM on full length p300. Besides, in assay [2], the EC50 came to 0.162 µM.

`CC(CNC(C(=O)c1cnn2cc(-c3cnn(C)c3)ccc12)c1ccccc1)c1ccc(C#N)cc1` (single isomer, unassigned) [102 Isomer 4]: the figures for the IC50 (in assay [1]; at full length p300) were 0.00936 µM and 0.000818 µM, respectively. In assay [2], this compound yielded a 50% effective concentration (EC50) of 0.043 µM.

For `O=C(c1c[nH]c2cc(-n3cccn3)ccc12)C(NCCc1ccc(F)cc1)c1ccccc1` (single isomer, unassigned) [118 Isomer 2], the IC50 in assay [1] was found to be 2.65 µM; on full length p300 it was 0.0813 µM. It took 0.893 µM to reach a half-maximal effect in assay [2] (EC50).

On to `CN(C)c1ccc(CCNC(C(=O)c2c[nH]c3ccccc23)c2ccccc2)cc1` (single isomer, unassigned) [39 Isomer 2], for which the concentration for half-maximal inhibition (IC50) in assay [1] came to 0.77 µM; on full length p300 it was 0.0275 µM. This compound returned an EC50 in assay [2] of 0.529 µM.

In the case of `Cc1nc(C(=O)C(NCCc2ccc(Cl)cc2)c2ccccc2)c2ccccn12` (single isomer, unassigned) [45 Isomer 1], the IC50 in assay [1] came out at 5.55 µM; on full length p300, 0.219 µM. Further, a half-maximal response in assay [2] (EC50) required 13.4 µM.

`O=C(c1c[nH]c2cc(-c3cccnc3)ccc12)C(NCCc1ccc(F)cc1)c1ccccc1` (single isomer, unassigned) [81 Isomer 2]: the IC50 was determined as 1.15 µM in assay [1] and 0.0146 µM on full length p300. Besides, the EC50 in assay [2] came out at 0.193 µM.

Consider `O=C(c1c[nH]c2ccccc12)C(NCCc1ccc(F)cc1)c1ccccc1` (single isomer, unassigned) [22 Isomer 2], for which the IC50 was determined as 2.32 µM in assay [1] and 0.0208 µM at full length p300. Also, the EC50 in assay [2] amounted to 1.69 µM.

`CN(C)C(=O)CCc1ccc2c(C(=O)C(NCCc3ccc(F)cc3)c3ccccc3)c[nH]c2c1` (single isomer, unassigned) [49 Isomer 2]: the IC50 was determined as 2.21 µM in assay [1] and 0.0553 µM on full length p300. A half-maximal effect in assay [2] (EC50) was put at 0.754 µM.

For the compound `COc1ccc(CCNC(C(=O)c2c[nH]c3c(C)cccc23)c2ccccc2)cc1` (single isomer, unassigned) [80 Isomer 2], the IC50 in assay [1] was 1.02 µM; at full length p300, 0.0335 µM. For the same compound, the EC50 in assay [2] is 0.817 µM.

Take `CN(C)C(=O)c1ccc2c(C(=O)C(NCCc3ccc(Cl)cc3Cl)c3ccccc3)c[nH]c2c1` (single isomer, unassigned) [152 Isomer 2]: the IC50 in assay [1] is 1.26 µM; on full length p300, 0.0287 µM. The compound further came in with an EC50 in assay [2] of 0.327 µM.

In the case of `O=C(c1c[nH]c2ccccc12)C(NCCc1ccc(C(F)(F)F)cc1)c1ccccc1` (single isomer, unassigned) [21 Isomer 1], the figures for the concentration for half-maximal inhibition (IC50) (in assay [1]; on full length p300) were 0.715 µM and 0.1 µM, respectively. In assay [2], this compound registered an EC50 of 0.0913 µM.

Take `CCNC(=O)c1ccc2c(C(=O)C(NCC(C)c3ccc(C#N)cc3)c3ccccc3)c[nH]c2c1` (single isomer, unassigned) [75 Isomer 4]: the IC50 came out at 0.00876 µM in assay [1] and 0.000711 µM at full length p300. In addition, the EC50 in assay [2] is 0.0193 µM.

As for `O=C(c1cnc2ccccn12)C(NCCc1ccc(Cl)cc1)c1ccccc1` (single isomer, unassigned) [46 Isomer 2], the IC50 in assay [1] came out at 6.55 µM; on full length p300, 0.283 µM. In assay [2], this compound displayed an EC50 of 29.4 µM.

Consider `Cn1cc(-c2ccc3c(C(=O)C(NCCc4ccc(F)cc4)c4ccccc4)c[nH]c3c2)cn1` (single isomer, unassigned) [78 Isomer 2], for which the IC50 was found to be 0.716 µM in assay [1] and 0.0109 µM at full length p300. In assay [2], this compound registered an EC50 of 0.104 µM.

Regarding `CNC(=O)Cn1cc(-c2ccc3c(C(=O)C(NCCc4ccc(Cl)cc4)c4ccccc4)c[nH]c3c2)cn1` (single isomer, unassigned) [87 Isomer 2], the IC50 in assay [1] came to 0.2 µM; on full length p300 it was 0.0116 µM. For the same compound, the EC50 in assay [2] worked out at 0.113 µM.

Turning to `O=C(c1c[nH]c2ccccc12)C(NCCc1ccc(Cl)cc1)c1cccnc1` (racemic) [43 Racemic, (rac)-2-((4-chlorophenethyl)amino)-1-(1H-indol-3-yl)-2-(pyridin-3-yl)ethan-1-one], the IC50 in assay [1] is 4.21 µM; at full length p300, 0.145 µM. Further, in assay [2], the response was half-maximal at 3.9 µM (EC50).

In the case of `CN1CCN(c2ccc3c(C(=O)C(NCCc4ccc(F)cc4)c4ccccc4)c[nH]c3c2)CC1` (single isomer, unassigned) [123 Isomer 2], the IC50 amounted to 0.808 µM in assay [1] and 0.0123 µM at full length p300. The compound further came in with a 50% effective concentration (EC50) in assay [2] of 0.216 µM.

`COc1ccc2c(C(=O)C(NCCc3ccc(S(N)(=O)=O)cc3)c3ccccc3)c[nH]c2c1` (single isomer, unassigned) [51 Isomer 2]: the IC50 is 1.29 µM in assay [1] and 0.0255 µM at full length p300. The compound also returned an EC50 in assay [2] of 0.324 µM.

On to `NS(=O)(=O)c1ccc(CCNC(C(=O)c2c[nH]c3c(Cl)cccc23)c2ccccc2)cc1` (single isomer, unassigned) [15 Isomer 2], for which the IC50 in assay [1] amounted to 1.49 µM; at full length p300 it was 0.0812 µM. The compound also registered a concentration for a half-maximal effect (EC50) in assay [2] of 0.405 µM.

With `CNC(=O)c1ccc2c(C(=O)C(NCCc3ccc(C#N)cc3)c3ccccc3)c[nH]c2c1` (single isomer, unassigned) [156 Isomer 2], the figures for the 50% inhibitory concentration (IC50) (in assay [1]; at full length p300) were 0.017 µM and < 0.002 µM, respectively. Also, the EC50 in assay [2] amounted to 0.0466 µM.

For the compound `CN(C)C(=O)Cc1ccc2c(C(=O)C(NCCc3ccc(C#N)cc3)c3ccccc3)c[nH]c2c1` (single isomer, unassigned) [63 Isomer 1], the IC50 came to 0.382 µM in assay [1] and 0.00878 µM at full length p300. In assay [2], this compound gave a half-maximal effective concentration (EC50) of 0.337 µM.

For the compound `NS(=O)(=O)c1ccc(CCNC(C(=O)c2c[nH]c3cnccc23)c2ccccc2)cc1` (single isomer, unassigned) [32 Isomer 1], the IC50 in assay [1] was determined as 1.45 µM; on full length p300, 0.102 µM. The compound further showed an EC50 in assay [2] of 3.67 µM.

With `CNC(=O)c1ccc(CCNC(C(=O)c2c[nH]c3ccccc23)c2ccccc2)cc1` (single isomer, unassigned) [134 Isomer 2], the IC50 in assay [1] was determined as 5.16 µM; on full length p300, 0.151 µM. In assay [2], this compound registered a 50% effective concentration (EC50) of 1.57 µM.

As for `COc1ccc2c(C(=O)C(NCCc3ccc(Cl)cc3)c3ccccc3)c[nH]c2c1` (single isomer, unassigned) [60 Isomer 2], the IC50 was found to be 1.09 µM in assay [1] and 0.178 µM on full length p300. Moreover, the EC50 in assay [2] is 0.546 µM.

`N#Cc1ccc(CCNC(C(=O)c2c[nH]c3cc(C(=O)O)ccc23)c2ccccc2)cc1` (single isomer, unassigned) [155 Isomer 1]: the IC50 was found to be 2.24 µM in assay [1] and 0.0773 µM at full length p300. The EC50 in assay [2] amounted to 16.7 µM.

For the compound `Cc1[nH]c2ccccc2c1C(=O)C(NCCc1ccc(S(N)(=O)=O)cc1)c1ccccc1` (single isomer, unassigned) [16 Isomer 2], the figures for the IC50 (in assay [1]; on full length p300) were 6.98 µM and 0.378 µM, respectively.

Regarding `COc1ccc(CCNC(C(=O)c2c[nH]c3c(CCC(=O)N(C)C)cccc23)c2ccccc2)cc1` (single isomer, unassigned) [29 Isomer 1], the IC50 in assay [1] came to 2.19 µM; on full length p300 it was 0.0911 µM.

Turning to `CN(C)C(=O)Cc1ccc2c(C(=O)C(NCCc3ccc(C#N)cc3)c3ccccc3)c[nH]c2c1` (single isomer, unassigned) [63 Isomer 2], the half-inhibitory concentration (IC50) in assay [1] came out at 2.5 µM; on full length p300, 0.0462 µM.

As for `NS(=O)(=O)c1ccc(CCNC(C(=O)c2c[nH]c3cccc(Cl)c23)c2ccccc2)cc1` (single isomer, unassigned) [12 Isomer 1], the half-maximal inhibitory concentration (IC50) in assay [1] is > 60 µM; at full length p300, 8.5 µM.

For `O=C(O)CCc1ccc2c(C(=O)C(NCCc3ccc(F)cc3)c3ccccc3)c[nH]c2c1` (single isomer, unassigned) [159 Isomer 2], the figures for the IC50 (in assay [1]; at full length p300) were 5.9 µM and 0.274 µM, respectively.

Consider `CNC(=O)Cc1ccc2c(C(=O)C(NCCc3ccc(C#N)cc3)c3ccccc3)c[nH]c2c1` (single isomer, unassigned) [62 Isomer 2], for which the results for the IC50 (in assay [1]; at full length p300) were 3.34 µM and 0.0513 µM, respectively.

On to `CN(C)C(=O)c1cccc2c(C(=O)C(NCCc3ccc(Cl)cc3Cl)c3ccccc3)c[nH]c12` (single isomer, unassigned) [148 Isomer 2], for which the IC50 in assay [1] came to 8.05 µM; at full length p300, 0.355 µM.

Take `COCCNC(=O)c1ccc2c(C(=O)C(NCCc3ccc(Cl)cc3Cl)c3ccccc3)c[nH]c2c1` (single isomer, unassigned) [154 Isomer 1]: the IC50 stood at 0.325 µM in assay [1] and 0.0377 µM on full length p300.

Consider `Cn1cc(-c2ccc3c(C(=O)C(NCCc4ccc(C(=O)O)cc4)c4ccccc4)c[nH]c3c2)cn1` (single isomer, unassigned) [138 Isomer 1], for which the IC50 came out at 0.442 µM in assay [1] and 0.03 µM at full length p300.
